The results in this text go back to patent US20090298890A1, “NEW N-METHYL BENZAMIDE DERIVATIVES” (BAYER CROPSCIENCE SA, priority 2006, published 2009).

One test deals with Pyrenophora teres. Put plainly: In vivo test on Pyrenophora teres (barley net blotch). The note with it: barley plants (Express variety), preventive spray 24 hours before contamination, dose 330 ppm, grading 12 days after contamination vs control plants. Here is the method: In Vivo Test on Pyrenophora Teres (Barley Net Blotch)
The active ingredients tested are prepared by homogenization in a mixture of acetone/tween/DMSO, then diluted with water to obtain the desired active material concentration.
Barley plants (Express variety), sown on a 50/50 peat soil-pozzolana substrate in starter cups and grown at 12° C., are treated at the 1-leaf stage (10 cm tall) by spraying with the active ingredient prepared as described above. Plants, used as controls, are treated with the mixture of acetone/tween/DMSO/water not containing the active material.
After 24 hours, the plants are contaminated by spraying them with an aqueous suspension of Pyrenophora teres spores (12,000 spores per ml). The spores are collected from a 12-day-old culture. The contaminated barley plants are incubated for 24 hours at about 20° C. and at 100% relative humidity, and then for 12 days at 80% relative humidity.
Grading is carried out 12 days after the contamination, in comparison with the control plants.

The next test deals with Alternaria alternata. Put plainly: Cell test on Alternaria alternata. The format is cell-based. The note with it: under similar conditions (10 ppm, OD 620 nm after 5 days at 20° C.). On the procedure:
Cell Test on Alternaria Alternata The growth of Alternaria alternata is performed on PDA medium at 20° C. under black light during 14 days. The PDA medium is prepared by mixing 39 grams of PDA (Merck) in 1 liter of demineralized water. The medium is sterilized by autoclave 15 minutes at 121° C. After 14 days of growth, the spores of Alternaria alternata are recovered in sterilized water and the concentration of spores adjusted to 10^6 spores per ml. The compounds is solubilized in DMSO and added to sterile liquid glucose/mycopeptone medium (14.6 g/l of D-glucose, 7.1 g/l of mycological peptone (Oxoid) and 1.4 g/l of yeast extract (Merck)) at a concentration of 10 ppm. The medium is inoculated with the spore suspension at a concentration of 10^5 spores per ml. The efficacy of the compounds is assessed by OD measurement at 620 nm after 5 days at 20° C. in comparison with a control.

In the case of `O=C(NCOc1ncc(C(F)(F)F)cc1Cl)c1ccccc1C(F)(F)F` [Compound 1, N-({[3-chloro-5-(trifluoromethyl)pyridin-2-yl]oxy}methyl)-2-(trifluoromethyl)benzamide], the protection result with Pyrenophora teres is reported as “at least 60%”.
As to `O=C(NOCc1ncc(C(F)(F)F)cc1Cl)c1c(Cl)cccc1Cl` [Compound 501], the activity result in the test on Alternaria alternata is given as “did not show any activity”.
The same measure, in the same setting: under `O=C(NOCc1ncc(C(F)(F)F)cc1Cl)c1c(F)cccc1F` [Compound 502, N-{[3-chloro-5-(trifluoromethyl)pyridin-2-yl]methoxy}-2,6-difluorobenzamide] stands “did not show any activity”.
